Entries after “also recorded” stand apart in the source; their conditions may differ. Like-named read-outs stand apart in the source and are kept apart here.
Assays:
isolated human PHF = isolated human PHF (Homo sapiens, UniProt P10636); experiment: Saturation binding of radioligand to isolated PHF
Description: Purified, soluble PHF was isolated from AD brain tissue using a protocol modified from the procedure described by Jicha et al.. Briefly, homogenized AD cortex underwent high pressure batch–gas expansion using a Parr Cell disruption bomb and centrifuged at […]. […] Bound PHF was eluted with two column volumes of 3M potassium thiocyanate. Isolated PHF was analyzed in a tau MC-1 ELISA and a tau AT8 ELISA, which recognizes tau phosphorylated at both Ser 202 and Thr 205 [3].
(§1) The dissociation constant (Kd) was determined by saturation binding, in which the total and non-specific binding of the radioligand was measured at various concentrations. Human recombinant MAO-A, MAO-B, and control microsomes were acquired from Sigma (M7316, M7441, and M7566, respectively). All microsome preparations were at a concentration of 5 mg protein/mL. The reaction mixture (250 μL) contained protein target and ^18F-radioligand, serially diluted in PBS, pH 7.4; assays were performed in PBS (0.01% bovine serum albumin [BSA]) in 96-well polypropylene microplates. […] . Filters were assayed for radioactivity in a Wizard 2480 automatic gamma-counter (Perkin Elmer).

Human recombinant MAO-A = target: T1, Human recombinant MAO-A (Homo sapiens, UniProt P21397); experiment: Saturation binding of radioligand to MAO-A microsomes
T1 construct: purchased Sigma M7316
T1 sequence (P21397 1-527): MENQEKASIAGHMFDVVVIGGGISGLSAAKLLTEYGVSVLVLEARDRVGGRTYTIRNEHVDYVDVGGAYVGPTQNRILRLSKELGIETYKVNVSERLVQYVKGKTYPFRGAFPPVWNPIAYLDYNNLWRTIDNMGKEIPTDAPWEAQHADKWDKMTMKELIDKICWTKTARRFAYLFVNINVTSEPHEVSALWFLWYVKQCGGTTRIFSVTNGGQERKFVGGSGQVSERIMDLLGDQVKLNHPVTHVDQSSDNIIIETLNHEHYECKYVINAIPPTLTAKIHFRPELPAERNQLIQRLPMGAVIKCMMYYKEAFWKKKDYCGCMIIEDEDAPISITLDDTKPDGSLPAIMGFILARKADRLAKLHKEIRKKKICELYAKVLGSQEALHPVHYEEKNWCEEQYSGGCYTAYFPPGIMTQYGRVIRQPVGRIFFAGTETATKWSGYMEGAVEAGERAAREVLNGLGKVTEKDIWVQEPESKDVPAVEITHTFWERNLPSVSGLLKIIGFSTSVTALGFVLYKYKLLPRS
Description: as §1

[1] = target: [^18F]flortaucipir binding to normal human brain (temporal cortex sections); experiment: [^18F]flortaucipir autoradiography competition binding assay with MAO-A and MAO-B inhibitors; conditions: for IC50: normal (tau NFT negative) human temporal cortex sections, 1.4 nM [^18F]flortaucipir, mild PBS wash, read-out: IC50, inhibition of [^18F]flortaucipir binding (autoradiography)
Description: After 60-min incubation at room temperature, PBS washes (4 × 2 min) were used to remove any unbound ligand. […] Signal intensity (counts/pixel) on each section was measured using Multi Gauge V3.0 Imaging software. Total binding was evaluated by nonlinear regression using GraphPad Prism v8 to determine IC50 values.

MAO-B microsomes [2] = target: T2, MAO-B microsomes (Homo sapiens, UniProt P27338); experiment: Competition binding, displacement of safinamide from MAO-B microsomes (LC-MS); set-up: purchased Sigma M7441
T2 sequence (P27338 1-520): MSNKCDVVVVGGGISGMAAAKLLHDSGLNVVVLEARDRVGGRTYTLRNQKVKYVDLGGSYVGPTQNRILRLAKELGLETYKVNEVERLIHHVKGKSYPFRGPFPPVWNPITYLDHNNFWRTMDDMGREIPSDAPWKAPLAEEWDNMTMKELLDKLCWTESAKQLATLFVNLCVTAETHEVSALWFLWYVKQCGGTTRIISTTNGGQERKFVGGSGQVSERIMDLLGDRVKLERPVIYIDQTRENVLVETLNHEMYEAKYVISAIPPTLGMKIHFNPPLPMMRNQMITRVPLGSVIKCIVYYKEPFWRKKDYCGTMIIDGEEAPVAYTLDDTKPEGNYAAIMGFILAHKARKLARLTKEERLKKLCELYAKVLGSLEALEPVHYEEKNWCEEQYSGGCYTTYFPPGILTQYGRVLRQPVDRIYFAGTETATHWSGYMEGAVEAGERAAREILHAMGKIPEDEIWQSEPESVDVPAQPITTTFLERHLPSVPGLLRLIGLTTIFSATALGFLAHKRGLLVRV
Description: IC50 values for each compound were determined by competition binding. […] IC50 values were determined by nonlinear regression analysis using GraphPad Prism.

MAO-B microsomes [3] = target: T2, MAO-B microsomes; experiment: LC-MS direct saturation binding to MAO-B microsomes
Human recombinant MAO-B = target: T3, Human recombinant MAO-B (Homo sapiens, UniProt P27338); experiment: Saturation binding of radioligand to MAO-B microsomes
T3 construct: purchased Sigma M7441
T3 sequence (P27338 1-520): T2 sequence (P27338 1-520)
Description: as §1

[4] = system: frozen human brain slices from AD donors (PHF tau-rich) and non-AD control donors; experiment: [^18F]flortaucipir autoradiography, stringent vs mild wash conditions; format: binding
Description: Autoradiography was performed on frozen human brain slices from AD donors (N = 3, PHF tau-rich as determined by AT8 immunohistochemistry) and age-matched non-AD control donors (N = 6, devoid of tau NFTs and beta-amyloid neuritic plaques as determined by immunohistochemistry). Brains slices were obtained from the National Disease Research Interchange (Philadelphia, PA).

MAO-A = target: T4, MAO-A (Rattus norvegicus, UniProt P21396); experiment: In vivo PET imaging in rats with pargyline pre-treatment; conditions: for peak brain activity: at 2 min
T4 construct: Male wild-type Sprague-Dawley rats; from tissue; host or cells: brain of living wild-type Sprague-Dawley rats
T4 sequence (P21396 1-526): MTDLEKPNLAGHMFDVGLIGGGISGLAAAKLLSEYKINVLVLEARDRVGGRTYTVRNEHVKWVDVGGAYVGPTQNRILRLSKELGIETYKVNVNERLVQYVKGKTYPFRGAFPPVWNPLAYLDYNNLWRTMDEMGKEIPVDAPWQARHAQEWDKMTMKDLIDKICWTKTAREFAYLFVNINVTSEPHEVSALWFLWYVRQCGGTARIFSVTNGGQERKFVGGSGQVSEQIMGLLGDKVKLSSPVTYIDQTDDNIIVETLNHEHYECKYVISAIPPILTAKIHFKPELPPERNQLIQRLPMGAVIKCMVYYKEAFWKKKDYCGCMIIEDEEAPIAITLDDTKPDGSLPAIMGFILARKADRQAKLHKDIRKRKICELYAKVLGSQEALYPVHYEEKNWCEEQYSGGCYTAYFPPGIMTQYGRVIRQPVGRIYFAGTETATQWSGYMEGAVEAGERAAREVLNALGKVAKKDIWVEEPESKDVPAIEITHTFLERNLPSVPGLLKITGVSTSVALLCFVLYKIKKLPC
Description: All procedures in this study followed the guidelines of the Institutional Animal Care and Use Committee of the University of the Sciences, Philadelphia, PA. A Siemens Inveon Multimodality Scanner was used for micro-PET/computed tomography (CT) imaging. Male wild-type Sprague-Dawley rats (128 ± 58 g) were anesthetized with 3% isoflurane with oxygen. Rats were administered [^18F]fluoroethyl-harmol or [^18F]flortaucipir via tail vein injection (7.4-14.8MBq [200–400 μCi] in a total volume of 200 μL). For blocking studies, rats were pre-treated with pargyline (Sigma-Aldrich, 50 mg/kg i.p.) 30 min prior to scans; control rats were pre-treated with 0.9% saline injection (Hospira, i.p.). A short high-resolution CT scan was first conducted for anatomical registration, followed by a 120-min dynamic PET scan. PET images were generated for each minute of the acquisition time. Uptake of the tracers was determined by visually drawing regions of interest based on the fused PET/CT images, and corresponding activity values were determined using Inveon Research Workplace software. All values are represented as % injected dose per gram (ID/g). A total of 6 rats were studied (3 control, 3 pre-treated) for [^18F]fluoroethyl-harmol and 8 rats for [^18F]flortaucipir (4 control, 4 pre-treated).

[5] = NSB defined as binding to control microsomes
[6] = NSB defined with 10 μM deprenyl

isolated human PHF, sequence (P10636 623-695 limits assumed): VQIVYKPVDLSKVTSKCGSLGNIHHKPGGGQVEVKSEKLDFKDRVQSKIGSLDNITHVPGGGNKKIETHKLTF

SMILES: Fc1ccc(-c2ccc3c(c2)[nH]c2ccncc23)cn1 [[^18F]flortaucipir]
- Kd (isolated human PHF): 0.57 nM
- Kd (Human recombinant MAO-A): 2 nM

SMILES: Cc1nccc2c1[nH]c1cc(OCCF)ccc12 [fluoroethyl-harmol]
- IC50 [1]: 780 nM
- IC50 (MAO-B microsomes [2]; read-out: IC50, displacement of safinamide, 30 nM safinamide, 10 μg MAO-B microsomes): > 10000 nM

SMILES: Fc1ccc(-c2ccc3c(c2)[nH]c2ccncc23)cn1 [flortaucipir]
- IC50 [1]: 270 nM
- IC50 (MAO-B microsomes [2]): 1300 nM
- specific binding to MAO-B (LC-MS saturation) (MAO-B microsomes [3]; higher flortaucipir concentrations): no specific binding was observed

SMILES: CNc1ccc(-c2ccc3cc(OC[C@H](O)C[18F])ccc3n2)cn1 [[^18F]THK5351]
- Bmax (Human recombinant MAO-B; [5]): 49 ± 6.3 pmol ligand/mg total protein
- Bmax (Human recombinant MAO-B; NSB defined with 1 μM THK5351): 54 ± 3.4 pmol ligand/mg total protein
- Bmax (Human recombinant MAO-B; [6]): 51 ± 5.5 pmol ligand/mg total protein

SMILES: [18F]c1ccc(-c2ccc3c(c2)[nH]c2ccncc23)cn1 [[^18F]flortaucipir]
- fraction of [^18F]flortaucipir bound to normal brain sections that was displaced ([1]; mild wash conditions, remainder non-specific and non-saturable): approximately 50%
- saturability of autoradiography signal on AD tissue [4]: saturable
- saturability of off-target binding, mild wash ([4]; mild wash, AD and control tissue, 1 μM flortaucipir): only partially saturable
- [^18F]flortaucipir binding on tissue, mild wash ([4]; mild washing (PBS), frontal cortex and striatum): observed on both AD and control tissues
- [^18F]flortaucipir binding on tissue, stringent wash ([4]; stringent washing (30% and 70% EtOH), frontal cortex and striatum): observed only on tau NFT-rich AD tissue, not on control tissue
- effect of pargyline pre-treatment on brain uptake and clearance (MAO-A; rats, control vs pargyline 50 mg/kg): nearly identical brain uptake with rapid clearance in both the control and pargyline groups
- specific binding to MAO-B (radioligand saturation) (Human recombinant MAO-B; MAO-B microsomes vs control microsomes or 10 μM deprenyl): no specific binding; also recorded: no significant binding

SMILES: Cc1nccc2c1[nH]c1cc(OCC[18F])ccc12 [[^18F]fluoroethyl-harmol]
- brain activity at 110 min (MAO-A; control rats, 110 min): 2.1 %ID/g
- peak brain activity (MAO-A; control rats, i.v.): 2.3 %ID/g
- peak brain activity (MAO-A; pargyline 50 mg/kg i.p. pre-treated rats): 2.4 %ID/g
- brain activity after washout (MAO-A; pargyline 50 mg/kg i.p. pre-treated rats, by 20 min): 1.0 %ID/g

SMILES: C[C@H](NCc1ccc(OCc2cccc(F)c2)cc1)C(N)=O [safinamide]
- IC50 [1]: ≥ 10000 nM
- Bmax (MAO-B microsomes [3]; LC-MS, NSB = control microsome): 446 pmol ligand/mg total protein

SMILES: CNc1ccc(-c2ccc3cc(OC[C@H](O)CF)ccc3n2)cn1 [[^18F]THK5351]
- Kd (Human recombinant MAO-B; [5]): 37 ± 1.8 nM
- Kd (Human recombinant MAO-B; NSB defined with 1 μM THK5351): 40 ± 0.7 nM
- Kd (Human recombinant MAO-B; [6]): 39 ± 1.1 nM

Reference: PMC9399028 (European Journal of Nuclear Medicine and Molecular Imaging, 2022)
